For 7 molecules, IC50 results are on record in patent US11040028B2, “Penicinotam derivative, preparation method and use thereof” (OCEAN UNIVERSITY OF CHINA, priority 2017, dated 2021).

As usually defined, the IC50 is the midpoint of a concentration-inhibition curve.

Holding throughout (format): cell-based
The subject of one experiment is BHK-21 cells. Put plainly: Anti-fibrosis activity test: inhibition of BHK-21 cell proliferation (CCK-8). The conditions noted are these: Mesocricetus auratus, BHK-21, 48 h, CCK-8, 48 hours after administration. In outline: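 BHK-21 cells seeded at 2×10^4 cells/mL, allowed to adhere 24 h at 37° C, 5% CO2, then exposed to compounds at graded concentrations in triplicate for 48 h. CCK-8 added for 2 h and absorbance read at 450 nm; inhibition rate taken as (1−Ai/Ao)×100% and IC50 fitted.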

Experiment [1] deals with human lung fibroblasts HFL1. The experiment is described as follows: Anti-fibrosis activity test: inhibition of proliferation of human lung fibroblasts HFL1 (CCK-8). The following applies: Homo sapiens, HFL1, 48 h, human lung fibroblasts HFL1, CCK-8, 48 hours. In outline:
(§1)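 Proliferation read by CCK-8 (2 h, A450) after 48 h compound treatment of cells plated at 2×10^4 cells/mL and allowed 24 h attachment, triplicate per concentration. Inhibition rate derived from absorbance relative to untreated blank, with IC50 fitted; pirfenidone as positive control.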

Experiment [2] has as its system human hepatic stellate cells LX-2. Put plainly: Anti-fibrosis activity test: inhibition of proliferation of human hepatic stellate cells LX-2 (CCK-8). The conditions noted are these: Homo sapiens, 48 h, human hepatic stellate cells LX-2, CCK-8, 48 hours. The method, boiled down: as §1
Experiment [3] has as its system human fibrosarcoma cells HT-1080. The experiment is described as follows: Anti-fibrosis activity test: inhibition of proliferation of human fibrosarcoma cells HT-1080 (CCK-8). The conditions noted are these: Homo sapiens, HT-1080, 48 h, human fibrosarcoma cells HT-1080, CCK-8, 48 hours. The method, boiled down: as §1
Experiment [4] deals with human dermal fibroblasts CCC-ESF-1. Put plainly: Anti-fibrosis activity test: inhibition of proliferation of human dermal fibroblasts CCC-ESF-1 (CCK-8). The conditions noted are these: Fibroblast; human dermal fibroblasts CCC-ESF-1, CCK-8, 48 hours. The method, boiled down:
as §1

For experiment [5], the system named is human embryonic lung fibroblast IMR-90. The experiment is described as follows: Anti-fibrosis activity test: inhibition of proliferation of human embryonic lung fibroblast IMR-90 (CCK-8). The conditions noted are these: human embryonic lung fibroblast IMR-90, CCK-8, 48 hours. The method, boiled down:
as §1

Experiment [6] concerns cardiac fibroblast RAT-iCell-C002. Put plainly: Anti-fibrosis activity test: inhibition of proliferation of cardiac fibroblast RAT-iCell-C002 (CCK-8). The following applies: Cardiac fibroblast, 48 h, cardiac fibroblast RAT-iCell-C002, CCK-8, 48 hours. In outline: as §1
In a further experiment the test system is NF-κB. Put plainly: Immunological activity test: inhibition of NF-κB activity. The conditions noted are these: initial concentration of 30 μM; a/b isomers given as first/second symbol; read-out: IC50 (μM), inhibitory activity against NF-κB. The method, boiled down: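 IC50 values were derived after initial screening of compounds at 30 μM for NF-κB inhibitory activity, with parthenolide serving as the positive control.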

In experiment [7] the test system is mouse macrophages (RAW264.7). Put plainly: Lipopolysaccharide-induced NO secretion in macrophages (Griess). The following applies: Mus musculus, RAW264.7, 24 h, RAW264.7, LPS 1 μg/ml, a/b isomers given as first/second symbol, read-out: IC50 (μM), inhibition of lipopolysaccharide-induced NO secretion in macrophages. The method, boiled down: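 Percent inhibition of NO release was measured by Griess absorbance at 548 nm in supernatants. Cells were mouse RAW264.7 macrophages in 10% FBS DMEM, treated with graded compound concentrations and activated by LPS (1 μg/ml) for 24 h.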
A general note: Nitrite, measured by Griess reagent, commonly stands in for NO production.

For the molecule `N#Cc1ccccc1-c1ccc(COc2c3c(nc4ccccc24)-c2cccn2C3=O)cc1` [Compound 648b, 4′-(((10-oxo-10H-pyrrolizino[1,2-b]quinolin-9-yl)oxy)methyl)-[1,1′-biphenyl]-2-carbonitrile], the IC50 (in the experiment with BHK-21 cells; in experiment [1]; in [2]; in experiment [3]; in experiment [4]; in experiment [5]) was 0.05 to 5 mM in each case. The IC50 in experiment [6] lay in the range of 0.05 to 5 mM; with NF-κB, 1 to 10 µM; in experiment [7], 10 to 50 µM.

Turning to `O=C1c2c(n(Cc3ccc(-c4ccccc4)cc3)c3ccccc3c2=O)-c2cccn21` [Compound 649a, 4-([1,1′-Biphenyl]-4-ylmethyl)-9H-pyrrolizino[1,2-b]quinoline-9,10(4H)-dione], the IC50 (in the experiment with BHK-21 cells; in [1]; in [2]; in experiment [3]; in experiment [4]; in experiment [5]) was 0.05 to 5 mM throughout. Also, the half-maximal inhibitory concentration (IC50) in experiment [6] was 0.05 to 5 mM; with NF-κB, 0.1 to 1 µM; in [7], 10 to 50 µM.

As to `O=C1c2c(nc3ccccc3c2OCc2ccc(-c3ccccc3)cc2)-c2cccn21` [Compound 649b, 9-([1,1′-biphenyl]-4-ylmethoxy)-10H-pyrrolizino[1,2-b]quinolin-10-one], the IC50 (in the experiment with BHK-21 cells; in experiment [1]; in [2]; in experiment [3]; in experiment [4]; in [5]) was 0.05 to 5 mM each time. The IC50 fell in the range of 0.05 to 5 mM in experiment [6], 10 to 50 µM in the experiment on NF-κB and 10 to 50 µM in experiment [7].

In the case of `CS(=O)(=O)n1c2c(c(=O)c3ccccc31)C(=O)n1cccc1-2` [Compound 650a, 4-(Methylsulfonyl)-9H-pyrrolizino[1,2-b]quinoline-9,10(4H)-dione], the IC50 in the experiment with BHK-21 cells is less than 0.05 mM; in experiment [1], 0.05 to 5 mM; in [2], 0.05 to 5 mM; in [3] it was 0.05 to 5 mM; in [4], 0.05 to 5 mM; in [5], 0.05 to 5 mM. Also, the figures for the IC50 (in experiment [6]; in the experiment on NF-κB; in [7]) were 0.05 to 5 mM, 1 to 10 µM and 1 to 10 µM, respectively.

`CS(=O)(=O)Oc1c2c(nc3ccccc13)-c1cccn1C2=O` [Compound 650b, 10-oxo-10H-pyrrolizino[1,2-b]quinolin-9-yl methanesulfonate]: the half-inhibitory concentration (IC50) (in the experiment with BHK-21 cells; in [1]; in experiment [2]; in experiment [3]; in experiment [4]; in experiment [5]) was 0.05 to 5 mM throughout. Also, the figures for the IC50 (in [6]; with NF-κB; in experiment [7]) were 0.05 to 5 mM, 1 to 10 µM and 1 to 10 µM, respectively.

Consider `COCCn1c2c(c(=O)c3ccccc31)C(=O)n1cccc1-2` [Compound 652a, 4-(2-Methoxyethyl)-9H-pyrrolizino[1,2-b]quinoline-9,10(4H)-dione], for which the concentration for half-maximal inhibition (IC50) (in the experiment with BHK-21 cells; in [1]; in [2]; in [3]; in experiment [4]; in experiment [5]) was 0.05 to 5 mM in each case. Further, the concentration for half-maximal inhibition (IC50) lay within 0.05 to 5 mM in [6], 1 to 10 µM in the experiment on NF-κB and 1 to 10 µM in experiment [7].

For the molecule `COCCOc1c2c(nc3ccccc13)-c1cccn1C2=O` [Compound 652b, 9-(2-methoxyethoxy)-10H-pyrrolizino[1,2-b]quinolin-10-one], the concentration for half-maximal inhibition (IC50) (in the experiment on BHK-21 cells; in [1]; in experiment [2]; in [3]; in experiment [4]; in [5]) was 0.05 to 5 mM throughout. In addition, the IC50 in experiment [6] is 0.05 to 5 mM; in the experiment on NF-κB it was 1 to 10 µM; in experiment [7] it was 1 to 10 µM.
